In PMC4981864, “Novel pH-Sensitive Cyclic Peptides” (Scientific Reports, 2016):

Assays:
[1] = type: physicochemical; conditions: pH 8
Procedure: (§1) Large unilamellar vesicles (LUVs) were prepared by extrusion. POPC, 1-palmitoyl-2-oleoyl-sn-glycero-3-phosphocholine (Avanti Polar Lipids), or a mixture of POPC with 0.5% of 18:1 NBD-PE, 1,2-dioleoyl-sn-glycero-3-phosphoethanolamine-N-7-nitro-2-1,3-benzoxadiazol-4-yl ammonium salt (Avanti Polar Lipids) were dissolved in chloroform, desolvated on a rotary evaporator, and dried under high vacuum for several hours. The phospholipid film was then rehydrated in 10 mM phosphate buffer pH 8.0, vortexed until the lipid bilayer was completely dissolved, and repeatedly (15–21 times) extruded through the membranes with 50 nm pore sizes to obtain LUVs.
pH-dependent partitioning of the peptides into a lipid bilayer of the membrane was investigated by the shift of the position of the fluorescence spectral maximum for the peptides in the presence POPC liposomes induced by a drop of pH from 8 to 2.5 by the addition of HCl. The peptides were incubated overnight with 50-nm POPC liposomes (final concentration of the peptides and POPC in solution was 5 μM and 1 mM, respectively), and pH decrease was achieved by the addition of aliquots of 4, 2, 1 and 0.1 M HCl. pH was measured by micro-electrode probe (Thermo Electron Corporation, Orion Ross Micro pH electrode). Fluorescence spectra were recorded at each pH value. The spectra were analyzed by the decomposition algorithms using on-line PFAST toolkit[47] (Protein Fluorescence and Structural Toolkit: http://pfast.phys.uri.edu/) to establish the position of the emission maximum. Finally, the positions of the fluorescence spectral maxima (λmax) were plotted versus pH, and the Henderson–Hasselbalch equation was used to fit the data (using Origin 8.5 software): […]
where [drawing 3] and [drawing 4] are the beginning and the end of the transition, respectively, and pKa – is the midpoint of the transition.

[2] = Steady-state tryptophan fluorescence and CD with and without POPC liposomes; type: physicochemical
Procedure: as §1
Freshly prepared peptides and POPC vesicles were mixed to have 5 μM of a peptide and 1.25 mM of lipids in the final solution. Steady-state fluorescence measurements were carried out on a PC1 spectrofluorometer (ISS, Inc.) under temperature control at 25 °C. Tryptophan fluorescence was excited at 280 nm (there is no Phe or Tyr in the peptides) and recorded with the excitation and emission slits set at 1 nm. The polarizers in the excitation and emission paths were set at the “magic” angle (54.7° from the vertical orientation) and vertically (0°), respectively. Steady state CD measurements were carried out in MOS 450 spectropolarimeter (Bio-Logic, Inc.) with the same concentrations of peptide and lipids used in fluorescence measurements.

[3] = Lipid titration, peptide-membrane partition model, Gibbs free energy; type: physicochemical; conditions: 5 μM peptide, varying 50 nm POPC liposomes
Procedure: Samples containing 5 μM of peptides at pH 8 and pH 3, and varying concentrations of lipids of the 50 nm POPC liposomes were prepared. The fluorescence spectra of peptides in all samples were measured at 280 nm excitation at 25 °C. A series of POPC blanks with the same concentrations of lipids were measured with the same instrument settings and were subtracted from the corresponding fluorescence spectra of peptides in the presence of POPC. The areas under the emission spectra were calculated and the values were normalized to the first point (the emission of the peptide in the absence of POPC). The titration data were fitted by the peptide-membrane partition model to calculate the mole-fraction partition coefficient, K
where F0 is the fluorescence intensity at zero concentration of lipids (in our case F0 = 1); ΔF if the fluorescence increase in the result of the titration with lipids; Clipids is the concentration of lipids; W is the molar concentration of water (55.3 M). Nonlinear least squares curve fitting procedure using Levenberg-Marquardt algorithm was implemented in Origin 8.5.0 SR1. The Gibbs free energy (ΔG) was calculated according to the equation: […]
where R is the gas constant and T is the temperature in Kelvin.

4T1 mammary tumors = experiment: Ex vivo fluorescence imaging of tumor and organs after IV Alexa546-peptides; type: in vivo; conditions: 24 hours after IV, three mice
Procedure: The murine 4T1 xenograft model, which closely mimics stage IV of human breast cancer, was used in our study. Small 4T1 tumor (tumor volume <150 mm^3) generates a significant level of lactate and serves as a good model of an aggressive, acidic tumor[35]. All peptides were covalently conjugated with Alexa546-malemide. […] The mean fluorescence of tumor, muscle, kidney, liver and lungs were recorded and analyzed (Fig. 6).
All animal studies were conducted according to the animal protocol AN04-12-011 approved by the Institutional Animal Care and Use Committee at the University of Rhode Island, in compliance with the principles and procedures outlined by NIH for the Care and Use of Animals. 4T1 breast tumors were established by subcutaneous injection of 4T1 cells (8 × 10^5 cells/0.1 mL/flank) in the right flank of adult female BALB/c mice (about 19–22 g weight) obtained from Harlan Laboratories. When tumors reached about 6 mm in diameter single tail vein injections of 100 μl of 40 μM Alexa546-peptides were performed. […] Mean fluorescence intensity of tumor and organs was calculated using Kodak software.

[4] = Calculated weak-acid distribution Ci/Ce between inner and outer leaflets; conditions: pKa 5.7
Source text: Thus, cyclic peptides could be considered as a weak acid with multiple protonatable groups, which can diffuse across the bilayer. For weak acids, the intracellular-extracellular distribution, Ci/Ce, should be calculated according to the following equation: […]
where pHi and pHe are the intracellular and extracellular pH values, respectively. Since the cyclic peptides have affinity to the membrane, we consider Ci and Ce as the concentrations of the peptide on inner and outer leaflets, respectively. […] However, the same ratio increases to 4.5, 7.8, and 10.9 if extracellular pHe would be 6.5, 6.2 and 6.0, respectively. We assume that the symmetrical WE peptides have the same mechanism of action as an asymmetric peptide, however they have less favorable localization of Trp and Glu residues, which reduces their ability to accumulate at the inner leaflet of bilayer of cellular membranes and target acidic tumors. Leu-containing peptides are less advantageous due to their reduced affinity to the headgroup part of the bilayer and high affinity to the center of the membrane.

For O=C(O)CC[C@@H]1NC(=O)[C@H](CS)NC(=O)[C@H](Cc2c[nH]c3ccccc23)NC(=O)[C@H](Cc2c[nH]c3ccccc23)NC(=O)[C@H](Cc2c[nH]c3ccccc23)NC(=O)[C@H](Cc2c[nH]c3ccccc23)NC(=O)[C@H](Cc2c[nH]c3ccccc23)NC(=O)[C@H](CCC(=O)O)NC(=O)[C@H](CCC(=O)O)NC(=O)[C@H](CCC(=O)O)NC1=O [c[E4W5C]], the “apparent pK (pKa) of peptide's partitioning into the bilayer” value [1] was 5.7, the “maximum position of the fluorescence spectrum λmax, Pep, pH8” value ([2]; peptide in phosphate buffer pH 8, no liposomes, 5 μM peptide, excitation 280 nm, 25 °C) was 350.6±0.2 nm and the “maximum position of the fluorescence spectrum λmax, Pep-PC, pH3” value ([2]; with POPC liposomes pH 3, 5 μM peptide, 1.25 mM lipids, excitation 280 nm, 25 °C) was 340.2±0.4 nm. The “S, normalized area under the spectra, Pep-PC, pH3” value ([2]; with POPC liposomes pH 3, normalized on area for peptide at pH 8 in absence of POPC) was 2.4±0.5, the “maximum position of the fluorescence spectrum λmax, Pep-PC, pH8” value ([2]; with POPC liposomes pH 8, 5 μM peptide, 1.25 mM lipids, excitation 280 nm, 25 °C) was 342.8±0.4 nm and the “S, normalized area under the spectra, Pep-PC, pH8” value ([2]; with POPC liposomes pH 8, normalized on area for peptide at pH 8 in absence of POPC) was 2.4±0.3. The “additional free energy released at low pH” value ([3]; pH 3 versus pH 8, 25 °C) was “about 0.7 kcal/mol”, the “free energy released on partitioning into the lipid bilayer at pH 8” value ([3]; pH 8, 25 °C, partition model) was “About 7.3 kcal/mol” and the Tumor/Muscle ratio (4T1 mammary tumors) was 5.6. For the same compound, the “concentration ratio at the inner and outer leaflets, Ci/Ce” value (from here on “concentration ratio … Ci/Ce”) ([4]; pHe 6.0, pHi = 7.2) was 10.9, the “concentration ratio … Ci/Ce” value ([4]; pHe 6.2, pHi = 7.2) was 7.8 and the “concentration ratio … Ci/Ce” value ([4]; pHe 6.5, pHi = 7.2) was 4.5. For the same compound, the “concentration ratio … Ci/Ce” value ([4]; pHe = 7.4, pHi = 7.2) was 0.6.
